Measured values: patent US20080312192A1, “Diaryl Urea Derivatives in the Treatment of Protein Kinase Dependent Diseases” (priority 2003, published 2008)

Each compound was assayed against T1, Flt-3 (Homo sapiens, UniProt P36888) (assay: Flt-3 kinase inhibition (GST-Flt-3, 33P incorporation into poly(Glu,Tyr))).
T1 construct: amino acids 563-993 of the cytoplasmic kinase domain of human Flt-3; made in house; host or cells: Sf9 insect cells (baculovirus, vector pFbacG01)
T1 sequence (P36888 563-993): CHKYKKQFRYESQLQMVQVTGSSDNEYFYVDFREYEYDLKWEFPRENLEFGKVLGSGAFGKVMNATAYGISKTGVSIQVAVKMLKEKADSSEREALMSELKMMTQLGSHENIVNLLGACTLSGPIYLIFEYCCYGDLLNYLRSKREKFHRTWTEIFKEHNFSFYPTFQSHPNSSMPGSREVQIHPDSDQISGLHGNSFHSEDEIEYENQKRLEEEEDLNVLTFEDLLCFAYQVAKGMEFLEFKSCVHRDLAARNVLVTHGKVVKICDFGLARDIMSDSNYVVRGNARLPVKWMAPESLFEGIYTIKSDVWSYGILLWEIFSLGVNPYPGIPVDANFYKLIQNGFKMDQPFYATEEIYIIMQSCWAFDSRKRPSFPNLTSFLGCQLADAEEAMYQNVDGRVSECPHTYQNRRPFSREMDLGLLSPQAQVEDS
Type: biochemical
Procedure, shortened: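 GST-fused human Flt-3 kinase domain (aa 563-993) from Sf9 cells assayed with 3 μg/mL poly(Glu,Tyr) 4:1, 8.0 μM ATP plus [γ-33P]ATP, Mn2+/Mg2+, pH 7.6, 20 min at ambient temperature. 33P incorporation counted on PVDF; IC50 by linear regression, duplicates at four concentrations (usually 0.01-10 μM).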

Going from `Nc1cc(Oc2ccc(NC(=O)Nc3cc(CN4CCC4)cc(C(F)(F)F)c3)cc2)ncn1` [Example 4, N-[4-(6-Amino-pyrimidin-4-yloxy)-phenyl]-N′-(3-azetidin-1-ylmethyl-5-trifluoromethyl-phenyl)-urea] to `CNc1cc(Oc2ccc(NC(=O)Nc3cc(CN4CCN(C(C)C)CC4)cc(C(F)(F)F)c3)cc2)ncn1` [Example 6, N-[4-(6-Methylamino-pyrimidin-4-yloxy)-phenyl]-N′-[3-(4-isopropylpiperazin-1-ylmethyl)-5-trifluoromethyl-phenyl]-urea], the IC50 rises from 153 nM to 400 nM (2.6-fold). The first is the more potent here.

First: CNc1nccc(Oc2ccc(NC(=O)Nc3ccc(N4CCN(C)CC4)c(C(F)(F)F)c3)cc2)n1 [Example 53d, 1-[4-(2-Methylamino-pyrimidin-4-yloxy)-phenyl]-3-[4-(4-methyl-piperazin-1-yl)-3-trifluoromethyl-phenyl]-urea]
Second: CNc1nccc(Oc2ccc(NC(=O)Nc3cc(N4CCN(C)CC4)cc(C(F)(F)F)c3)cc2)n1 [Example 53b, 1-[4-(2-Methylamino-pyrimidin-4-yloxy)-phenyl]-3-[3-(4-methyl-piperazin-1-yl)-5-trifluoromethyl-phenyl]-urea]
The IC50 of the first is 1.6-fold higher: 190 nM for the first, 120 nM for the second. The second is the more potent here.

Compared with `CCN1CCN(Cc2ccc(NC(=O)Nc3ccc(Oc4ccnc(N)n4)cc3)cc2C(F)(F)F)CC1` [Example 52c, 1-[4-(2-Amino-pyrimidin-4-yloxy)-phenyl]-3-[4-(4-ethyl-piperazin-1-ylmethyl)-3-trifluoromethyl-phenyl]-urea], `CN1CCN(Cc2ccc(NC(=O)Nc3ccc(Oc4ccnc(N)n4)cc3)cc2C(F)(F)F)CC1` [Example 52a, 1-[4-(2-amino-pyrimidin-4-yloxy)-phenyl]-3-[4-(4-methylpiperazin-1-ylmethyl)-3-trifluoromethyl-phenyl]-urea] is 4.1-fold higher in IC50: 29 nM for the first, 120 nM for the second. The first is the more potent here.

First: CC(C)(C)N1CCN(Cc2ccc(NC(=O)Nc3ccc(Oc4ccnc(N)n4)cc3)cc2C(F)(F)F)CC1 [Example 50]
Second: CC(C)N1CCN(Cc2ccc(NC(=O)Nc3ccc(Oc4cc(N)ncn4)cc3)cc2C(F)(F)F)CC1 [Example 19, N-[4-(6-Amino-pyrimidin-4-yloxy)-phenyl]-N′-[4-(4-isopropylpiperazin-1-ylmethyl)-3-trifluoromethyl-phenyl]-urea]
The IC50 of the first is 2.1-fold lower: 120 nM for the first, 250 nM for the second.

`Cc1ncn(Cc2ccc(NC(=O)Nc3ccc(Oc4ccnc(N)n4)cc3)cc2C(F)(F)F)c1C` [Example 51a.1, 1-[4-(2-Amino-pyrimidin-4-yloxy)-phenyl]-3-(4-(4,5-dimethyl-imidazol-1-ylmethyl)-3-trifluoromethyl-phenyl]-urea] showed an IC50 of 85 nM.
